Assay results published in patent US12661353B2, “SPT5 inhibitors and uses thereof” (Yeda Research and Development Co. Ltd., priority 2020, dated 2026).

What was measured:
[1] = target: T1, His-eIF4E (Homo sapiens, UniProt P06730); test: Binding assay by intrinsic fluorescence of His-eIF4E (negative control); conditions: negative control protein
T1 construct: His tag; made in house; host or cells: E. coli; purified by nickel agarose beads
Method: Binding assay—In order to measure binding of the indicated compound to Spt5 and/or Pol II; Spt5-Spt4 or Rpb1 fused to a histidine (His) tag were expressed in E. coli (SEQ ID Nos: 2-3, 5-6 and 81) and purified on nickel agarose beads as described in Ashkenazi et al. 2016. The proteins were incubated for 10 minutes with increasing concentrations of the indicated compound in a black 384 wells microplate in a total volume of 20 μl. Binding was assessed by measuring the changes in the intrinsic fluorescence (280 nm) using Cytation™ 5 (BioTek).
Direct interaction with either the Spt5 or the Rpb1 CC domain of SPI-21 and SPI-18 was further validated. His-Rpb1 and His-Spt5 (fused to Spt4 to increase its stability) and His-eIF4E, used as a negative control, were each expressed in E. coli and purified by nickel agarose beads. Using the purified proteins, fluorescence intensity measurements were performed in the presence of increasing concentrations of SPI-21 and SPI-18. This method analyzes binding by monitoring the changes in the intrinsic fluorescence of the proteins as a consequence of conformational changes. Spt5, Rpb1, and eIF4E display significant intrinsic fluorescence, as expected from the presence of aromatic residues in all of them. […] These findings are consistent with the direct interaction of the identified SPI compounds with the Spt5 and Rpb1 proteins.

[2] = tested on: wild type (Q7) Htt; test: Newly synthesized Htt transcripts, 4sU metabolic labeling, Q7 cells; assay type: cell-based, mouse; conditions: 4sU for 2 hours
Method: Metabolic labeling of newly synthesized RNA with 4-thiouridine (4sU)—STHdh Q111 and STHdh Q7 cells (collected from 10 cm dishes) were treated for 30 minutes with DMSO (vehicle control) or the tested SPI compound (e.g., SPJ-21). Following, 4-thiouridine (4sU, 150 μM final concentration) was added for additional 2 hours. The labeling was terminated by removing the 4sU-containing medium and washing the cells 3 times with phosphate-buffered saline (PBS). Total RNA was extracted as described above. 10 μg of RNA were biotinylated using biotin-HPDP (1:5; A8008, APExBIO) for 1.5 hours at room temperature and the biotinylated RNA was purified using chloroform and isopropanol extraction and dissolved in DEPC water. Following, the biotinylated RNA was captured by incubation with Streptavidin-coated magnetic beads (NEB, S1420S) for 30 minutes at room temperature in constant rotation. Bound RNA was eluted with 100 μl of 0.1 M fresh DTT. […]
Huntington's disease (HD) is an inherited genetic disorder caused by expansion trinucleotide CAG repeats (36 and higher) encoding glutamine (Q) in the huntingtin (Htt) gene. […] The two cell lines were treated for 48 hours with the identified SPIs and following the levels of Htt mRNA were determined. […] Moreover, the levels measured from the second exon relative to the first were fairly higher in Q7 compared to Q111 and this small difference was kept all along the gene. […]

T1 sequence (P06730 whole entry): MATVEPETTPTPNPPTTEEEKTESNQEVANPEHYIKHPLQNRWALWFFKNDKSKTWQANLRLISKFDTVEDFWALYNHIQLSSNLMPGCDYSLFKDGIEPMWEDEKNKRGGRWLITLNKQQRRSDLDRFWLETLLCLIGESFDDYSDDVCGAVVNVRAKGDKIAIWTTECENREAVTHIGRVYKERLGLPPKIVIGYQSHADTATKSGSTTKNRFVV

COc1ccc(C=CC(=O)c2cc(O)ccc2O)cc1 [SPI-21]
effect on intrinsic fluorescence of eIF4E [1]: no significant effect | levels of newly synthesized Q7 Htt [2]: not Q7 Htt were diminished
